Each structure is given as a SMILES string. Where two headings read alike, the source gives them in different places.

Experimental findings from article PMC10175918 (Communications Biology, 2023) are described below.

What all share (test): TGFα-shedding assay-based GPCR screening with chimeric Gα subunit proteins
What all share (assay type): cell-based

Assay [1] deals with 348 GPCRs (Homo sapiens, UniProt O95665). As to conditions: NTSR2 (neurotensin receptor type 2); 10µM, Favipiravir 100μM.
Chain of 348 GPCRs (Homo sapiens, UniProt O95665) (O95665 whole entry): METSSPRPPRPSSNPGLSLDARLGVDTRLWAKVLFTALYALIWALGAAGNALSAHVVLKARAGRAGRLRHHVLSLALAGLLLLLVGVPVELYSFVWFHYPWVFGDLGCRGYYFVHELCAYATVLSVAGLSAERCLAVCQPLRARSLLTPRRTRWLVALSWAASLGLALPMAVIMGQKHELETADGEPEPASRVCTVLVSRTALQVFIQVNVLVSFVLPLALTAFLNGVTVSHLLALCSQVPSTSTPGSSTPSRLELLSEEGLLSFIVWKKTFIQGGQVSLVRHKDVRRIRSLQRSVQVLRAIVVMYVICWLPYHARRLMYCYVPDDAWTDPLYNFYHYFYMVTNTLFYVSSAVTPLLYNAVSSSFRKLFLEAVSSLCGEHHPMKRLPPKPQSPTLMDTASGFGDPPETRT
Assay [2] deals with 348 GPCRs (Homo sapiens, UniProt P25103). As to conditions: 10µM, Favipiravir 100μM.
Chain of 348 GPCRs (Homo sapiens, UniProt P25103) (P25103 whole entry): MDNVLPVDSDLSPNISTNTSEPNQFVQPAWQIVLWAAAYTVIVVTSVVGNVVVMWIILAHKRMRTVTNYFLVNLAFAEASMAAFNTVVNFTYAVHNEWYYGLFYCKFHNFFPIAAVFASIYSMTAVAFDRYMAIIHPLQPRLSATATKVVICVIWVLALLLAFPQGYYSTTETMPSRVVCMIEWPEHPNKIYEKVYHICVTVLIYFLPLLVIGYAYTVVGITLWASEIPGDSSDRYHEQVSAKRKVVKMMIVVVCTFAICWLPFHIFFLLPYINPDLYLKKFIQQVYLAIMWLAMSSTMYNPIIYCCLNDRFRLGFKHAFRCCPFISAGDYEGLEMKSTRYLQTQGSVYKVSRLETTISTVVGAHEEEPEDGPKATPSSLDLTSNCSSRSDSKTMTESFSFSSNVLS
In assay [3] the target is 348 GPCRs (Homo sapiens, UniProt P30874). Conditions: 10µM, Favipiravir 100μM.
Chain of 348 GPCRs (Homo sapiens, UniProt P30874) (P30874 whole entry): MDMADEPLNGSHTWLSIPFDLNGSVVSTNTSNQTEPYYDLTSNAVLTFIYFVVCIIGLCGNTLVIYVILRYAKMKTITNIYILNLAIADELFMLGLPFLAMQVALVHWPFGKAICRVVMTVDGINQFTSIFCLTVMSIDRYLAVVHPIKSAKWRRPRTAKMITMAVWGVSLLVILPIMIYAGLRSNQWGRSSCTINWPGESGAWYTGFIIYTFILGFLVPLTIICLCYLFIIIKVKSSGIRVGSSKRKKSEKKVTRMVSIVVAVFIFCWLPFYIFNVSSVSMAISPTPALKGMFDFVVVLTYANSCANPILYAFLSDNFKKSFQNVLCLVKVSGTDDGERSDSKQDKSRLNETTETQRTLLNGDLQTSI
Assay [4] deals with T1, 348 GPCRs (Homo sapiens, UniProt P49019).
T1 construct: expressed in transfected cells; host or cells: HEK293A
T1 sequence (P49019 whole entry): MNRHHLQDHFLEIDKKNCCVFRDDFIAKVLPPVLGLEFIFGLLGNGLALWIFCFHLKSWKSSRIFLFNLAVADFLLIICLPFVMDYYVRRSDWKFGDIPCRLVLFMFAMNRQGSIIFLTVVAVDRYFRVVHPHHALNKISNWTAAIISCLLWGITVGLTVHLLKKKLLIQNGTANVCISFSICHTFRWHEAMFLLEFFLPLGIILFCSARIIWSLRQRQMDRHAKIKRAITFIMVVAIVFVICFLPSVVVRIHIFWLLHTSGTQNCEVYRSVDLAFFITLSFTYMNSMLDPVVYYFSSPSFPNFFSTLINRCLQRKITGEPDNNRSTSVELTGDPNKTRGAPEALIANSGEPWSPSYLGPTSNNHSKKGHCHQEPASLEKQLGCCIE
As to conditions: 10µM, Favipiravir 100μM.

The target in assay [5] is T2, 348 GPCRs (Homo sapiens, UniProt P51582).
T2 construct: expressed in transfected cells; host or cells: HEK293A
T2 sequence (P51582 whole entry): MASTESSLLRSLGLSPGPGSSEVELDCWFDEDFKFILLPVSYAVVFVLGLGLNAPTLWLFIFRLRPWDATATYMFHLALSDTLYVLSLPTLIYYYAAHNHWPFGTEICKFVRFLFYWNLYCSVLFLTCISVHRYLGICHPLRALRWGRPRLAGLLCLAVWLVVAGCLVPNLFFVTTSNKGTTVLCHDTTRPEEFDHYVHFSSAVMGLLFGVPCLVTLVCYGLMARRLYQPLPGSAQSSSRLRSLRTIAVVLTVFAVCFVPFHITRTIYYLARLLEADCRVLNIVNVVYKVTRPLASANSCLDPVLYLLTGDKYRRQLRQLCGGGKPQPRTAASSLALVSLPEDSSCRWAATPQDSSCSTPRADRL

The target in assay [6] is T3, 348 GPCRs (Homo sapiens, UniProt Q15077).
T3 construct: expressed in transfected cells; host or cells: HEK293A
T3 sequence (Q15077 whole entry): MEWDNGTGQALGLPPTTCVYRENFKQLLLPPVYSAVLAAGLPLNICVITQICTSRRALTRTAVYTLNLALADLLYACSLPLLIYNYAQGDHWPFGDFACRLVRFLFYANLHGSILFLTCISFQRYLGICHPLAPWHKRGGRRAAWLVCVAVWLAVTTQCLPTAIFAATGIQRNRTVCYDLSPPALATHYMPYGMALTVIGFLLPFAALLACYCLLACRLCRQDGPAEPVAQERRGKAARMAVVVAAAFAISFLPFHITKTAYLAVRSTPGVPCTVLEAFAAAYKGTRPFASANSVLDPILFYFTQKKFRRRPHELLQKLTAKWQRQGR

The target of assay [7] is T4, 348 GPCRs (Homo sapiens, UniProt Q6DWJ6).
T4 construct: expressed in transfected cells; host or cells: HEK293A
T4 sequence (Q6DWJ6 1-353): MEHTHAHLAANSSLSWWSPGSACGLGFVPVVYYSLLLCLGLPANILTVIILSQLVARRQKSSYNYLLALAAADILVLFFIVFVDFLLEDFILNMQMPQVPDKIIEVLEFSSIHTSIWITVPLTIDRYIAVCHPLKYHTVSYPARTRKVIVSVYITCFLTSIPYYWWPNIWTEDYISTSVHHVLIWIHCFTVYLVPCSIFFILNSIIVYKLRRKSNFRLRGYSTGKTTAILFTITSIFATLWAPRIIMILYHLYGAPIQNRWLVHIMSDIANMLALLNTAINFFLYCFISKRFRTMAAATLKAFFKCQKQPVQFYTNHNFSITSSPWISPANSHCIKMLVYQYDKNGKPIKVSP
As to conditions: 10µM, Favipiravir 100μM.

Assay [8] concerns the target T5, 348 GPCRs (Homo sapiens, UniProt Q8N6U8).
T5 construct: expressed in transfected cells; host or cells: HEK293A
Conditions: 10µM, Favipiravir 100μM.

The target of assay [9] is T6, 348 GPCRs (Homo sapiens, UniProt Q969F8).
T6 construct: expressed in transfected cells; host or cells: HEK293A
T6 sequence (Q969F8 whole entry): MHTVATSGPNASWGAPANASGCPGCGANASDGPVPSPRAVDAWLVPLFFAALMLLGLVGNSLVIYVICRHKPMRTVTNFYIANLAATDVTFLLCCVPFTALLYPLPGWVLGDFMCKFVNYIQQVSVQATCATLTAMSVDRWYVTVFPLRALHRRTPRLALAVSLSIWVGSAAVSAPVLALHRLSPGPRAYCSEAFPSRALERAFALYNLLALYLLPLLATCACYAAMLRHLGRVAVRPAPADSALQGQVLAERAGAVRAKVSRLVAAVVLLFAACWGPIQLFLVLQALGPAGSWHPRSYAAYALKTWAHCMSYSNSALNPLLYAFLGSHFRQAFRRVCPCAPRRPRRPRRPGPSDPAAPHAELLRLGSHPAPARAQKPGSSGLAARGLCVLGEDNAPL
As to conditions: 10µM, Favipiravir 100μM.

Assay [10] concerns the target T7, 348 GPCRs (Homo sapiens, UniProt Q969N4).
T7 construct: expressed in transfected cells; host or cells: HEK293A
T7 sequence (Q969N4 1-342): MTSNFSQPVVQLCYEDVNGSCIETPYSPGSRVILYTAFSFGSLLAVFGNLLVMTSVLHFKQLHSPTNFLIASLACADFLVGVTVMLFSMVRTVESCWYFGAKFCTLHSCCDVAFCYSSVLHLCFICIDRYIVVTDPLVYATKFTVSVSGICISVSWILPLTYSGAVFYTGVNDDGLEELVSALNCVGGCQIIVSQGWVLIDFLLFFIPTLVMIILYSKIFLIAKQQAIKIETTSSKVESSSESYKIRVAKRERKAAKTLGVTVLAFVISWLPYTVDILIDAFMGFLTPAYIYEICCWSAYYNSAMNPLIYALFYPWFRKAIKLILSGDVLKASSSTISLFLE
As to conditions: 10µM, Favipiravir 100μM.

Assay [11] concerns the target T8, 348 GPCRs (Homo sapiens, UniProt Q9BXA5).
T8 construct: expressed in transfected cells; host or cells: HEK293A
T8 sequence (Q9BXA5 1-334): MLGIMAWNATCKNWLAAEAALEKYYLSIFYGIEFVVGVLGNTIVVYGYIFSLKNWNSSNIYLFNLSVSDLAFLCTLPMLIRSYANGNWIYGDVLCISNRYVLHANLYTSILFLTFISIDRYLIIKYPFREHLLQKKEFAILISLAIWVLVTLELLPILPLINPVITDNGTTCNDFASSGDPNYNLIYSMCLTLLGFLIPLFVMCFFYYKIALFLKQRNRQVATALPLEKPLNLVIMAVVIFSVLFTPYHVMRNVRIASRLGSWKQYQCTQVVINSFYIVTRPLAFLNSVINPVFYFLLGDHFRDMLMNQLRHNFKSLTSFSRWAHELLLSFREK
As to conditions: 10µM, Favipiravir 100μM.

Assay [12] has as its target T9, 348 GPCRs (Homo sapiens, UniProt Q9GZN0).
T9 construct: expressed in transfected cells; host or cells: HEK293A
Conditions: 10µM, Favipiravir 100μM.

Assay [13] addresses T10, 348 GPCRs (Homo sapiens, UniProt Q9NYV7).
T10 construct: expressed in transfected cells; host or cells: HEK293A
T10 sequence (Q9NYV7 1-291): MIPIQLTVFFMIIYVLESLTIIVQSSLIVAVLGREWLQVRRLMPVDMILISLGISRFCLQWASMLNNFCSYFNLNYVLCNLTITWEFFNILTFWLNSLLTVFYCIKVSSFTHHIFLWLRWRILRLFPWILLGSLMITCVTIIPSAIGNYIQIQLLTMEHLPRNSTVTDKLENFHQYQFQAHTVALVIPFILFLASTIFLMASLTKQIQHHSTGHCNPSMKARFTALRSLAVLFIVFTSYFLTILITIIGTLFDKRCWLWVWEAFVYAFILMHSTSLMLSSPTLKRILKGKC
Conditions: 10µM, Favipiravir 100μM.

The mark [14] stands for this setting: read-out: % GPCR activation compared to TPA, NK1 (tachykinin receptor 1).
Where [15] appears, read: read-out: % GPCR activation compared to TPA, SSTR2 (somatostatin receptor 2).
Setting [16] is: read-out: % GPCR activation compared to TPA, HCA3 (hydroxycarboxylic Acid Receptor 3).
[17] abbreviates: read-out: % GPCR activation compared to TPA, GPCR P2Y4 (pyrimidinergic receptor P2Y, G-protein coupled, 4).
[18] abbreviates: read-out: % GPCR activation compared to TPA, GPCR P2Y6 (pyrimidinergic receptor P2Y, G-protein coupled, 6).
Setting [19] is: read-out: % GPCR activation compared to TPA, GPR139 (G protein-coupled receptor 139).
Setting [20] is: read-out: % GPCR activation compared to TPA, GPR161 (G protein-coupled receptor 161).
[21] abbreviates: read-out: % GPCR activation compared to TPA, KISSPEPTIN-R (KISS1 Receptor).
Where [22] appears, read: read-out: % GPCR activation compared to TPA, TAAR8 (trace amine associated receptor 8).
The mark [23] stands for this setting: read-out: % GPCR activation compared to TPA, SUCNR1 (succinate receptor 1).
The mark [24] stands for this setting: read-out: % GPCR activation compared to TPA, GPR88 (G Protein-Coupled Receptor 88).
The mark [25] stands for this setting: read-out: % GPCR activation compared to TPA, TAS2R16 (taste receptor, type 2, member 16).
[26] abbreviates: NK1 (tachykinin receptor 1), read-out: % GPCR activation compared to TPA.
The mark [27] stands for this setting: SSTR2 (somatostatin receptor 2), read-out: % GPCR activation compared to TPA.
Where [28] appears, read: HCA3 (hydroxycarboxylic Acid Receptor 3), read-out: % GPCR activation compared to TPA.
Where [29] appears, read: GPR139 (G protein-coupled receptor 139), read-out: % GPCR activation compared to TPA.
The mark [30] stands for this setting: GPR161 (G protein-coupled receptor 161), read-out: % GPCR activation compared to TPA.
Where [31] appears, read: KISSPEPTIN-R (KISS1 Receptor), read-out: % GPCR activation compared to TPA.
The mark [32] stands for this setting: TAAR8 (trace amine associated receptor 8), read-out: % GPCR activation compared to TPA.
The mark [33] stands for this setting: SUCNR1 (succinate receptor 1), read-out: % GPCR activation compared to TPA.
[34] abbreviates: GPR88 (G Protein-Coupled Receptor 88), read-out: % GPCR activation compared to TPA.
Where [35] appears, read: TAS2R16 (taste receptor, type 2, member 16), read-out: % GPCR activation compared to TPA.
Setting [36] is: GPCR P2Y4 (pyrimidinergic receptor P2Y, G-protein coupled, 4), read-out: % GPCR activation compared to TPA.
Setting [37] is: GPCR P2Y6 (pyrimidinergic receptor P2Y, G-protein coupled, 6), read-out: % GPCR activation compared to TPA.

T9 sequence (Q9GZN0 whole entry): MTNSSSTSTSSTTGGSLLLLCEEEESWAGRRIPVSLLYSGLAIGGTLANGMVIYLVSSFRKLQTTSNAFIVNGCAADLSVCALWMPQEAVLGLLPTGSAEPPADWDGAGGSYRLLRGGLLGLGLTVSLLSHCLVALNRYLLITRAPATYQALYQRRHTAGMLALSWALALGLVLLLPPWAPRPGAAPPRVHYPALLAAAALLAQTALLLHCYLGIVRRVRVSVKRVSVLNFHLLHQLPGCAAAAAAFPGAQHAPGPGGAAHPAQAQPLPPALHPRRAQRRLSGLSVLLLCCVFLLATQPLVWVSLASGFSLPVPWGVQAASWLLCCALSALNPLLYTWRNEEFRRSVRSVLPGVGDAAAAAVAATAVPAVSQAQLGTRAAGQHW
T5 sequence (Q8N6U8 whole entry): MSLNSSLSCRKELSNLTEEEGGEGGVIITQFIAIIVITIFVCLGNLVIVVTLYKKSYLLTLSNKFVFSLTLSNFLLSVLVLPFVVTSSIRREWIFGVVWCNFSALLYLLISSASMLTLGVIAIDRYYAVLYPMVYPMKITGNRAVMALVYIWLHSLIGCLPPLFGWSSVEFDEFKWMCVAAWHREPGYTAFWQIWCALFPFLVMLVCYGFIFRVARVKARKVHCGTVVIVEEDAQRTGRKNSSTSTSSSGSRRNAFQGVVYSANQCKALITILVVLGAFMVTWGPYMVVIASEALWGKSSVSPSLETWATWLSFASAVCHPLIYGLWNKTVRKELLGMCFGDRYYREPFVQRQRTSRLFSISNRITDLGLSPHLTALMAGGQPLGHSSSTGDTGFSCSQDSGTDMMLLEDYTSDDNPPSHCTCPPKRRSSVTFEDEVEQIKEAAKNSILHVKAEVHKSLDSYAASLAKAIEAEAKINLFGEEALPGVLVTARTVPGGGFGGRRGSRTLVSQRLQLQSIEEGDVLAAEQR

With `CC(C)OC(=O)[C@H](C)N[P@](=O)(OC[C@H]1O[C@@H](n2ccc(=O)[nH]c2=O)[C@](C)(F)[C@@H]1O)Oc1ccccc1` [sofosbuvir], on 348 GPCRs [1], the “% GPCR activation compared to TPA” value is 0.2553%. The activation at 10 µM at 348 GPCRs [2] (setting [14]) is -1.29%; at 348 GPCRs [3] (setting [15]) it was -1.14%; at 348 GPCRs [5] (setting [17]), -14.4%; at 348 GPCRs [6] (setting [18]), -26.6%; at 348 GPCRs [8] (setting [20]), -5.59%; on 348 GPCRs [11] (setting [23]), -0.922%. In addition, the activation at 100 µM was -2.7% at 348 GPCRs [4] (setting [16]); -27.2% at 348 GPCRs [7] (setting [19]); -1.38% at 348 GPCRs [9] (setting [21]); -2.21% at 348 GPCRs [10] (setting [22]); -0.818% at 348 GPCRs [12] (setting [24]); -1% on 348 GPCRs [13] (setting [25]).
Regarding `NC(=O)c1nc(F)cnc1O` [favipiravir, 6-fluoro-3-hydroxy-2-pyrazinecarboxamide], the “% GPCR activation compared to TPA” value on 348 GPCRs [1] is reported as -3.411%. For the same compound, the activation at 10 µM on 348 GPCRs [2] (setting [26]) was -3.44%; at 348 GPCRs [3] (setting [27]), -0.842%; on 348 GPCRs [8] (setting [30]), -0.46%; on 348 GPCRs [11] (setting [33]) it was -2.99%. Moreover, the activation at 100 µM is 0.282% at 348 GPCRs [4] (setting [28]); -6.06% at 348 GPCRs [5] (GPCR P2Y4 (pyrimidinergic receptor P2Y, G-protein coupled, 4), 100μM, read-out: % GPCR activation compared to TPA); -0.384% on 348 GPCRs [6] (GPCR P2Y6 (pyrimidinergic receptor P2Y, G-protein coupled, 6), 100μM, read-out: % GPCR activation compared to TPA); -7.28% on 348 GPCRs [7] (setting [29]); -3.52% on 348 GPCRs [9] (setting [31]); 0.473% on 348 GPCRs [10] (setting [32]). Further, the values for the activation at 100 µM at 348 GPCRs [12] (setting [34]) and at 348 GPCRs [13] (setting [35]) were -1.1% and 0.411%, respectively.
As for `CCC(CC)COC(=O)[C@H](C)N[P@](=O)(OC[C@H]1O[C@@](C#N)(c2ccc3c(N)ncnn23)[C@H](O)[C@@H]1O)Oc1ccccc1` [remdesivir], the “% GPCR activation compared to TPA” value on 348 GPCRs [1] was -1.859%. Also, the activation at 10 µM at 348 GPCRs [2] (setting [14]) was -0.867%; on 348 GPCRs [3] (setting [15]), 0.304%; on 348 GPCRs [5] (setting [17]), -0.00402%; at 348 GPCRs [6] (setting [18]) it was 1.18%; on 348 GPCRs [8] (setting [20]), -2.6%; on 348 GPCRs [11] (setting [23]), -2.26%. Moreover, the activation at 100 µM is -1.75% at 348 GPCRs [4] (setting [16]); 2.27% on 348 GPCRs [7] (setting [19]); -1.75% on 348 GPCRs [9] (setting [21]); 0.465% on 348 GPCRs [10] (setting [22]); -0.608% at 348 GPCRs [12] (setting [24]); 0.556% on 348 GPCRs [13] (setting [25]).
Regarding `N#C[C@@]1(c2ccc3c(N)ncnn23)O[C@H](CO)[C@@H](O)[C@H]1O` [GS441524], the “% GPCR activation compared to TPA” value on 348 GPCRs [1] came to 1.005%. The activation at 10 µM at 348 GPCRs [2] (setting [26]) was -0.668%; at 348 GPCRs [3] (setting [27]), -0.998%; at 348 GPCRs [5] (setting [36]) it was -5.06%; at 348 GPCRs [6] (setting [37]), -8.65%; at 348 GPCRs [8] (setting [30]), -1.6%; on 348 GPCRs [11] (setting [33]), -1.18%. The activation at 100 µM on 348 GPCRs [4] (setting [28]) is -0.178%; at 348 GPCRs [7] (setting [29]), -6.35%; on 348 GPCRs [9] (setting [31]), -2.31%; at 348 GPCRs [10] (setting [32]), -1.62%; at 348 GPCRs [12] (setting [34]) it was -2.34%; at 348 GPCRs [13] (setting [35]) it was -2.06%.
Consider `CC(C)C(=O)OC[C@H]1O[C@@H](n2ccc(NO)nc2=O)[C@H](O)[C@@H]1O` [molnupiravir], for which the “% GPCR activation compared to TPA” value on 348 GPCRs [1] is 0.1275%. Further, the activation at 10 µM is 1.66% at 348 GPCRs [2] (setting [26]); -0.658% on 348 GPCRs [3] (setting [27]); -12.8% on 348 GPCRs [5] (setting [36]); -17.8% at 348 GPCRs [6] (setting [37]); -3.46% on 348 GPCRs [8] (setting [30]); -1.93% on 348 GPCRs [11] (setting [33]). Moreover, the activation at 100 µM is -2.64% at 348 GPCRs [4] (setting [28]); -23.9% at 348 GPCRs [7] (setting [29]); -4.04% on 348 GPCRs [9] (setting [31]); -0.135% on 348 GPCRs [10] (setting [32]); -1.19% at 348 GPCRs [12] (setting [34]); -0.65% at 348 GPCRs [13] (setting [35]).
